Values of other authors as cited in US20060008806A1, “Method for producing novel DNA sequence with biological activity” (University of Washington, priority 1986, published 2006).

Tested on: β-lactamases
Settings: Labia, et al., 1979

Question: For `CC1(C)S[C@@H]2[C@H](NC(=O)[C@H](N)c3ccccc3)C(=O)N2[C@H]1C(=O)O` [ampicillin], which Km is on record?
Answer: The Km was 31 µM.

Question: For `CC1(C)S[C@@H]2[C@H](NC(=O)Cc3ccccc3)C(=O)N2[C@H]1C(=O)O` [benzylpenicillin], which Km is on record?
Answer: The Km was 21 µM.

Question: For `CC1(C)S[C@@H]2[C@H](NC(=O)C(C(=O)O)c3ccccc3)C(=O)N2[C@H]1C(=O)O` (stereo partly drawn) [carbenicillin], which Km is on record?
Answer: The Km was 10 µM.
